Assay results from patent publication EP0221032A2, “Sodium salt of etodolic acid and process for its preparation” (priority 1985, dated 1987).
Structures can show the parent of a compound that is named as a salt. Where two headings read alike, the source gives them in different places. One block for each molecule: values may come before it.

Tests used:
[1] = background statement on the free acid; cited from earlier work
[2] = Water solubility of etodolic acid and its salts; type: physicochemical; conditions: for solubility: water
Description: Etodolic acid was taken into consideration as a typical representative, particularly appreciated from the pharmacological point of view, of said derivatives and some typical salts thereof were prepared.
(§1) In order to avail oneself of a derivative usable in therapy, it is necessary, in fact, to obtain a highly soluble substance, also considering the doses of etodolic acid which have to be administered for getting an efficient therapeutic action (at least 200 mg twice a day in the adult).

[3] = Colour and stability of aqueous solutions of the salts (quickened ageing tests); type: physicochemical; conditions: for colour of the solutions: aqueous solutions
Description: as §1

[4] = pH of aqueous solutions of the sodium salt; type: physicochemical
Source text: The 20% solution has a pH of 8.7, while a 7.3% solution has a pH of 7.8.

[5] = Stability after sterilization at 120°C in autoclave for 20 min; type: physicochemical; conditions: 10% aqueous solution
Source text: (§2) The following tables No.1, 2 and 3 respectively show the stability data of sodium etodolate in aqueous solutions at 10% and 20% at various temperatures and again at 10% after sterilization in autoclave in a closed container.

[6] = Stability in a 10% aqueous solution at various temperatures; type: physicochemical; conditions: for remaining at 720 h / remaining at 1440 h / remaining at 2160 h: water, read-out: Titre % (HPLC)
Source text: as §2

[7] = Stability in a 20% aqueous solution at various temperatures; type: physicochemical; conditions: for remaining at 720 h / remaining at 1440 h / remaining at 2160 h: water, read-out: Titre % (HPLC)
Source text: as §2

[8] = after sterilization at 120°C in autoclave for 20 min, closed container

Compound: CCc1cccc2c3c([nH]c12)C(CC)(CC(=O)O)OCC3 (centres unmarked) [etodolic acid, 1,8-diethyl-1,3,4,9-tetrahydropyran-[3,4-b] indol-1-acetic acid]
water solubility (in words) [1]: water-insoluble

solubility [2]: 2% | colour of the solutions [3]: deeply coloured | stability of the solutions ([3]; quickened ageing tests): not much stable
Compound: CCc1cccc2c3c([nH]c12)C(CC)(CC(=O)O)OCC3 (centres unmarked) [potassium salt, reference compound]

water solubility (in words) [2]: easily soluble in water | solubility [2]: exceed 20 % by weight | solubility ([2]; water-soluble): > 200 mg/mL | pH ([4]; 7.3% solution): 7.8 | pH ([4]; 20% solution): 8.7 | colour of the solutions [3]: only fleebly yellow-coloured | stability of the solutions ([3]; during time): very stable during time | stability ([3]; most different storage and treatment conditions (summary of Tables 1-3)): quite stable | Appearance of the solution [5, 8]: limpid | Colour of the solution [5, 8]: pale yellow | pH [5, 8]: 7.8 | Appearance of the solution ([5]; at starting-point): limpid | Colour of the solution ([5]; at starting-point): pale yellow | Titre % (HPLC) ([5]; at starting-point): 100% | pH ([5]; at starting-point): 7.8 | remaining at 20 min ([5]; water, after sterilization at 120°C in autoclave for 20 min, closed container, read-out: Titre (%) (HPLC)): 100% | Colour ([6]; 5°C, 1 month): unchanged | pH ([6]; 5°C, 1 month): 7.8 | Colour ([6]; 5°C, 2 month): unchanged | pH ([6]; 5°C, 2 month): 7.8 | Colour ([6]; 5°C, 3 month): unchanged | pH ([6]; 5°C, 3 month): 7.75 | Colour ([6]; 25°C, 1 month): unchanged | pH ([6]; 25°C, 1 month): 7.8 | Colour ([6]; 25°C, 2 month): unchanged | pH ([6]; 25°C, 2 month): 7.85 | Colour ([6]; 25°C, 3 month): unchanged | pH ([6]; 25°C, 3 month): 7.8 | Colour ([6]; 45°C, 1 month): unchanged | pH ([6]; 45°C, 1 month): 7.8 | Colour ([6]; 45°C, 2 month): unchanged | pH ([6]; 45°C, 2 month): 7.8 | Colour ([6]; 45°C, 3 month): unchanged | pH ([6]; 45°C, 3 month): 7.7 | Colour ([6]; at starting point): pale yellow | Titre % (HPLC) ([6]; at starting point): 100% | pH ([6]; at starting point): 7.8 | remaining at 720 h ([6]; 5°C, 1 month): 99% | remaining at 1440 h ([6]; 5°C, 2 month): 100% | remaining at 2160 h ([6]; 5°C, 3 month): 100% | remaining at 720 h ([6]; 25°C, 1 month): 100% | remaining at 1440 h ([6]; 25°C, 2 month): 100% | remaining at 2160 h ([6]; 25°C, 3 month): 99% | remaining at 720 h ([6]; 45°C, 1 month): 100% | remaining at 1440 h ([6]; 45°C, 2 month): 99% | remaining at 2160 h ([6]; 45°C, 3 month): 100% | Colour ([7]; 5°C, 1 month): unchanged | pH ([7]; 5°C, 1 month): 8.7 | Colour ([7]; 5°C, 2 month): unchanged | pH ([7]; 5°C, 2 month): 8.7 | Colour ([7]; 5°C, 3 month): unchanged | pH ([7]; 5°C, 3 month): 8.6 | Colour ([7]; 25°C, 1 month): unchanged | pH ([7]; 25°C, 1 month): 8.7 | Colour ([7]; 25°C, 2 month): unchanged | pH ([7]; 25°C, 2 month): 8.6 | Colour ([7]; 25°C, 3 month): unchanged | pH ([7]; 25°C, 3 month): 8.7 | Colour ([7]; 45°C, 1 month): unchanged | pH ([7]; 45°C, 1 month): 8.6 | Colour ([7]; 45°C, 2 month): deep yellow | pH ([7]; 45°C, 2 month): 8.7 | Colour ([7]; 45°C, 3 month): deep yellow | pH ([7]; 45°C, 3 month): 8.7 | Colour ([7]; at starting point): pale yellow | Titre % (HPLC) ([7]; at starting point): 100% | pH ([7]; at starting point): 8.7 | remaining at 720 h ([7]; 5°C, 1 month): 99% | remaining at 1440 h ([7]; 5°C, 2 month): 100% | remaining at 2160 h ([7]; 5°C, 3 month): 97% | remaining at 720 h ([7]; 25°C, 1 month): 100% | remaining at 1440 h ([7]; 25°C, 2 month): 99% | remaining at 2160 h ([7]; 25°C, 3 month): 100% | remaining at 720 h ([7]; 45°C, 1 month): 99% | remaining at 1440 h ([7]; 45°C, 2 month): 98% | remaining at 2160 h ([7]; 45°C, 3 month): 98%
Compound: CCc1cccc2c3c([nH]c12)C(CC)(CC(=O)O)OCC3 (centres unmarked) [sodium salt of etodolic acid, Sodium salt of etodolic acid]
